{"source": "patent US8361964B2", "about": "“Growth hormone releasing factor (GRF) analogs and uses thereof” (Theratechnologies Inc., priority 2011, dated 2013)", "key": {"Growth Hormone secretion [1]": {"test_system": "Growth Hormone secretion", "experiment": "Growth Hormone secretion in female rats after subcutaneous GRF analog", "assay_type": "in vivo", "conditions": "female Sprague-Dawley rats; 10 μg/rat subcutaneous; plasma 0-60 minutes", "source_text": "(§1) Sprague-Dawley rats (female, weighting from 250 to 300 g) were obtained from Charles River Inc. Animals were used according to a protocol of the Animal Care Committee along with the principles of the Guide for the Care and Use of Experimental Animals of the Canadian Council on Animal Care. The animals were maintained on standard laboratory chow under a 12:12 light:dark cycle. They were kept in groups of 4 rats per cage.\nThe animals were anesthetized with isoflurane 2.5%. A mid-section opening was made in the neck to expose the carotid artery. The carotid artery was canulated with polypropylene tubing (PE-50) to allow blood withdrawal. After surgical preparation, rats received a subcutaneous injection of GRF analog (10 μg/rat dissolved in 20 mM AcONa+5% mannitol at pH 5). For pharmacodynamics studies, blood samples (400 μL) were collected from 4 to 8 animals per group per time point. Blood samples (400 μl) were collected via the carotid catheter at 0, 10, 20, 30, 45 and 60 minutes after drug injection. Blood was placed into microtainer pre-treated with K3EDTA and immediately centrifuged at 13,000 RPM in a desktop centrifuge for 2 minutes. The plasma was collected and placed into a screw cap Eppendorf™ and quick frozen in liquid nitrogen. The samples were then kept at −80° C. until assayed. Determination of GH levels was performed as described below.\n(§2) Rat and mouse plasma samples were vortexed carefully and centrifuged at 9,000 RPM for 2 min at 4° C. The dosage of GH levels was performed using the Rat/Mouse Growth Hormone ELISA kit from Millipore (Cat. # EZRMGH-45K). Sample supernatants were first diluted 20-fold with the GH ELISA assay buffer, and 10 μl of this dilution was added to the ELISA plate with 90 μl of GH EIA assay buffer. The remaining of the procedure was performed according to the manufacturer's instructions, and the data obtained were analyzed using GraphPad Prism™ software.\n(§3) The GRF analogs described herein were tested for their ability to induce GH release in female mice and rats. […] The data are presented in Tables III (mice) and IV-V (rats)."}, "human GRF receptor": {"biological_target": "T1, human GRF receptor (Homo sapiens, UniProt Q02643)", "T1 construct": "expressed in transfected cells; host or cells: baby hamster kidney (BHK) cells, stably transfected", "T1 sequence (Q02643 23-423)": "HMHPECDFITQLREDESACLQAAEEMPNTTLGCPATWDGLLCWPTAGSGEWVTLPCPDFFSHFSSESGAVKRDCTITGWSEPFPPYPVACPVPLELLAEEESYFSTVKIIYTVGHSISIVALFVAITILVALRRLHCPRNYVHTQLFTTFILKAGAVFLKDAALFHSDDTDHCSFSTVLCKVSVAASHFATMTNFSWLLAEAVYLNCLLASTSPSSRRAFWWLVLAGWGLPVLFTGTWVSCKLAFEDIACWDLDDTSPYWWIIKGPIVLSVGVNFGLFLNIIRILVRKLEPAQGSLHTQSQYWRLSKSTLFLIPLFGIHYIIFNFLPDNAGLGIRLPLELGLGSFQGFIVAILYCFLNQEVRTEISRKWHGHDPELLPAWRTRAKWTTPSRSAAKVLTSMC", "experiment": "Alkaline phosphatase (AP) assay, GHRHr agonist activity", "assay_type": "cell-based", "conditions": "BHK cells stably expressing human GRF receptor and alkaline phosphatase reporter gene; 24 hrs stimulation; read-out: EC50 (nM) as assessed by alkaline phosphatase (AP) induction", "description": "The activity of representative GRF peptides was tested on baby hamster kidney (BHK) cells stably transfected to express the human GRF receptor and an alkaline phosphatase reporter gene. Cells were cultured 24 hours before stimulation, in 96-well plates, at a concentration of 0.5×10^5 cells/well. Before stimulation, cells were washed twice with DPBS and incubated 10-30 min in assay buffer (DMEM without phenol red supplemented with 20 mM HEPES and 1% heat inactivated fetal bovine serum (FBS). The dose response curve of the GRF peptides was done for 24 hrs with concentrations of peptides from 10^−5 M to 10^−11 M. Supernatant was collected and analysis of alkaline phosphatase levels was performed using the Alkaline Phosphatase detection kit from Applied Biosystems.\nThe in vitro activity of representative GRF analogs was tested on baby hamster kidney (BHK) cells expressing human GHRHr."}, "Growth Hormone secretion [2]": {"test_system": "Growth Hormone secretion", "experiment": "Growth Hormone secretion in female mice after subcutaneous GRF analog", "assay_type": "in vivo", "conditions": "female CD-1 mice; 10 μg/mouse subcutaneous; plasma 10 minutes after injection", "source_text": "as §1, with “CD-1 mice” for “Sprague-Dawley rats”, “20” for “250”, “25” for “300”, “mice” for “rats”\nAt the day of the experiment, mice received a subcutaneous injection of GRF analog (10 μg/mouse dissolved in 20 mM sodium acetate (AcONa)+5% mannitol at pH 5). 10 minutes after injection, the mice were anesthezied with isolufrane. Blood samples (500 μl) were obtained by intra-cardiac puncture. Blood was placed into microtainer pre-treated with K3EDTA and immediately centrifuged at 13,000 RPM in a desktop centrifuge for 2 minutes. The plasma was collected and placed into a screwcap Eppendorf™ tube and quick frozen in liquid nitrogen. The samples were then kept at −80° C. until assayed. Determination of GH levels was performed as described below.\nas §2, §3"}}, "note": "Where a SMILES comes first, the peptide text is derived from it.", "data": [{"compound": "H-YSDAIFTDSYRKVLAQLKARQDILARAARAAR-NH2 [SEQ ID NO: 33, YSDAIFTDSYRKVLAQLKARQDILARAARAAR-NH2]", "values": [{"measurement": "Mean AUC (GH Area Under the curve, GH concentration over time)", "setting": "Growth Hormone secretion [1]", "result": 12467}, {"measurement": "Mean Cmax (ng/ml) of Growth Hormone secretion", "setting": "Growth Hormone secretion [1]", "result": 499.0, "unit": "ng/mL"}, {"measurement": "EC50", "setting": "human GRF receptor", "result": 0.25, "unit": "nM"}]}, {"compound": "H-YGDAIFTDSYRKVLAQLKARQDILARAARAAR-NH2 [SEQ ID NO: 34, YGDAIFTDSYRKVLAQLKARQDILARAARAAR-NH2]", "values": [{"measurement": "Mean AUC (GH Area Under the curve, GH concentration over time)", "setting": "Growth Hormone secretion [1]", "result": 11046}, {"measurement": "Mean Cmax (ng/ml) of Growth Hormone secretion", "setting": "Growth Hormone secretion [1]", "result": 539.7, "unit": "ng/mL"}, {"measurement": "EC50", "setting": "human GRF receptor", "result": 0.2, "unit": "nM"}]}, {"compound": "CC[C@H](C)[C@H](NC(=O)[C@H](C)NC(=O)[C@H](CC(=O)O)NC(=O)CNC(=O)[C@@H](N)Cc1ccc(O)cc1)C(=O)N[C@@H](Cc1ccccc1)C(=O)N[C@H](C(=O)N[C@@H](CC(=O)O)C(=O)N[C@@H](CO)C(=O)N[C@@H](Cc1ccc(O)cc1)C(=O)N[C@@H](CCCNC(=N)N)C(=O)N[C@@H](CCCCN)C(=O)N[C@H](C(=O)N[C@@H](CC(C)C)C(=O)N[C@@H](C)C(=O)N[C@@H](CCC(N)=O)C(=O)N[C@@H](CC(C)C)C(=O)N[C@@H](CCCCN)C(=O)N[C@@H](C)C(=O)N[C@@H](CCCNC(=N)N)C(=O)N[C@@H](CCC(N)=O)C(=O)N[C@@H](CC(=O)O)C(=O)N[C@H](C(=O)N[C@@H](CC(C)C)C(=O)N[C@@H](C)C(=O)N[C@@H](CCCNC(=N)N)C(=O)N[C@@H](C)C(=O)N[C@@H](C)C(=O)N[C@@H](CCCNC(=N)N)C(=O)N[C@@H](C)C(=O)N[C@@H](C)C(=O)N[C@@H](CCCNC(=N)N)C(=O)N[C@@H](CCO)C(N)=O)[C@@H](C)CC)C(C)C)[C@@H](C)O", "note": "[SEQ ID NO: 36, YGDAIFTDSYRKVLAQLKARQDILARAARAAR-HoSer-NH2] (HELM PEPTIDE1{Y.G.D.A.I.F.T.D.S.Y.R.K.V.L.A.Q.L.K.A.R.Q.D.I.L.A.R.A.A.R.A.A.R.[O=C([C@H](CCO)N[*:1])[*:2]].[am]}$$$$V2.0)", "values": [{"measurement": "Mean AUC (GH Area Under the curve, GH concentration over time)", "setting": "Growth Hormone secretion [1]", "result": 6211}, {"measurement": "Mean Cmax (ng/ml) of Growth Hormone secretion", "setting": "Growth Hormone secretion [1]", "result": 373.5, "unit": "ng/mL"}, {"measurement": "EC50", "setting": "human GRF receptor", "result": 0.2, "unit": "nM"}]}, {"compound": "CC/C=C/CC(=O)N[C@@H](Cc1ccc(O)cc1)C(=O)N[C@@H](C)C(=O)N[C@@H](CC(=O)O)C(=O)N[C@@H](C)C(=O)N[C@H](C(=O)N[C@@H](Cc1ccccc1)C(=O)N[C@H](C(=O)N[C@@H](CC(=O)O)C(=O)N[C@@H](CO)C(=O)N[C@@H](Cc1ccc(O)cc1)C(=O)N[C@@H](CCCNC(=N)N)C(=O)N[C@@H](CCCCN)C(=O)N[C@H](C(=O)N[C@@H](CC(C)C)C(=O)N[C@@H](C)C(=O)N[C@@H](CCC(N)=O)C(=O)N[C@@H](CC(C)C)C(=O)N[C@@H](CO)C(=O)N[C@@H](C)C(=O)N[C@@H](CCCNC(=N)N)C(=O)N[C@@H](CCC(N)=O)C(=O)N[C@@H](CC(=O)O)C(=O)N[C@H](C(=O)N[C@@H](CC(C)C)C(=O)N[C@@H](C)C(=O)N[C@@H](CCCNC(=N)N)C(=O)N[C@@H](C)C(=O)N[C@@H](C)C(=O)N[C@@H](CCCNC(=N)N)C(=O)N[C@@H](C)C(=O)N[C@@H](C)C(=O)N[C@@H](CCCNC(=N)N)C(N)=O)[C@@H](C)CC)C(C)C)[C@@H](C)O)[C@@H](C)CC", "note": "[SEQ ID NO: 27, Trans-3-hexenoyl-YADAIFTDSYRKVLAQLSARQDILARAARAAR-NH2] (HELM PEPTIDE1{[CC/C=C/CC(=O)[*:2]].Y.A.D.A.I.F.T.D.S.Y.R.K.V.L.A.Q.L.S.A.R.Q.D.I.L.A.R.A.A.R.A.A.R.[am]}$$$$V2.0)", "values": [{"measurement": "GH levels 10 min", "setting": "Growth Hormone secretion [2]", "result": 323.6, "unit": "ng/mL"}, {"measurement": "Mean AUC (GH Area Under the curve, GH concentration over time)", "setting": "Growth Hormone secretion [1]", "result": 8350}, {"measurement": "Mean Cmax (ng/ml) of Growth Hormone secretion", "setting": "Growth Hormone secretion [1]", "result": 455.6, "unit": "ng/mL"}]}, {"compound": "CC/C=C/CC(=O)N[C@@H](Cc1ccc(O)cc1)C(=O)N[C@@H](C)C(=O)N[C@@H](CC(=O)O)C(=O)N[C@@H](C)C(=O)N[C@H](C(=O)N[C@@H](Cc1ccccc1)C(=O)N[C@H](C(=O)N[C@@H](CC(=O)O)C(=O)N[C@@H](CO)C(=O)N[C@@H](Cc1ccc(O)cc1)C(=O)N[C@@H](CCCNC(=N)N)C(=O)N[C@@H](CCCCN)C(=O)N[C@H](C(=O)N[C@@H](CC(C)C)C(=O)N[C@@H](C)C(=O)N[C@@H](CCC(N)=O)C(=O)N[C@@H](CC(C)C)C(=O)N[C@@H](CCCCN)C(=O)N[C@@H](C)C(=O)N[C@@H](CCCNC(=N)N)C(=O)N[C@@H](CCC(N)=O)C(=O)N[C@@H](CC(=O)O)C(=O)N[C@H](C(=O)N[C@@H](CC(C)C)C(=O)N[C@@H](C)C(=O)N[C@@H](CCCNC(=N)N)C(=O)N[C@@H](C)C(=O)N[C@@H](C)C(=O)N[C@@H](CCCNC(=N)N)C(N)=O)[C@@H](C)CC)C(C)C)[C@@H](C)O)[C@@H](C)CC", "note": "[SEQ ID NO: 26, Trans-3-hexenoyl-YADAIFTDSYRKVLAQLKARQDILARAAR-NH2] (HELM PEPTIDE1{[CC/C=C/CC(=O)[*:2]].Y.A.D.A.I.F.T.D.S.Y.R.K.V.L.A.Q.L.K.A.R.Q.D.I.L.A.R.A.A.R.[am]}$$$$V2.0)", "values": [{"measurement": "GH levels 10 min", "setting": "Growth Hormone secretion [2]", "result": 484.6, "unit": "ng/mL"}, {"measurement": "Mean AUC (GH Area Under the curve, GH concentration over time)", "setting": "Growth Hormone secretion [1]", "result": 8880}, {"measurement": "Mean Cmax (ng/ml) of Growth Hormone secretion", "setting": "Growth Hormone secretion [1]", "result": 468.1, "unit": "ng/mL"}]}, {"compound": "CC[C@H](C)[C@H](NC(=O)[C@H](C)NC(=O)[C@H](CC(=O)O)NC(=O)[C@@H](C)NC(=O)[C@@H](N)Cc1ccc(O)cc1)C(=O)N[C@@H](Cc1ccccc1)C(=O)N[C@H](C(=O)N[C@@H](CC(=O)O)C(=O)N[C@@H](CO)C(=O)N[C@@H](Cc1ccc(O)cc1)C(=O)N[C@@H](CCCNC(=N)N)C(=O)N[C@@H](CCCCN)C(=O)N[C@H](C(=O)N[C@@H](CC(C)C)C(=O)N[C@@H](C)C(=O)N[C@@H](CCC(N)=O)C(=O)N[C@@H](CC(C)C)C(=O)N[C@@H](CCCCN)C(=O)N[C@@H](C)C(=O)N[C@@H](CCCNC(=N)N)C(=O)N[C@@H](CCC(N)=O)C(=O)N[C@@H](CC(=O)O)C(=O)N[C@H](C(=O)N[C@@H](CC(C)C)C(=O)N[C@@H](CO)C(=O)N[C@H](CCCNC(=N)N)C(N)=O)[C@@H](C)CC)C(C)C)[C@@H](C)O", "note": "[SEQ ID NO: 21, Y-a-DAIFTDSYRKVLAQLKARQDILS-r-NH2] (HELM PEPTIDE1{Y.[dA].D.A.I.F.T.D.S.Y.R.K.V.L.A.Q.L.K.A.R.Q.D.I.L.S.[dR].[am]}$$$$V2.0)", "values": [{"measurement": "GH levels 10 min", "setting": "Growth Hormone secretion [2]", "result": 104.4, "unit": "ng/mL"}, {"measurement": "Mean AUC (GH Area Under the curve, GH concentration over time)", "setting": "Growth Hormone secretion [1]", "result": 3130}, {"measurement": "Mean Cmax (ng/ml) of Growth Hormone secretion", "setting": "Growth Hormone secretion [1]", "result": 135.9, "unit": "ng/mL"}]}]}
